{
  "source": "patent US4110536A",
  "about": "“Derivatives of 5-(indol-3-yl)hydantoin” (Miles Laboratories, Inc., priority 1977, dated 1978)",
  "key": {"[1]": {"system": "chloroform-induced arrhythmias", "conditions": "mouse, in vivo, ip, 10 min", "method": "The antiarrhythmic activity of the compounds listed above were tested in the experimental model reported by J. W. Lawson (J. Pharmacol. Exp. Therap., 160: 22-31 (1968).\nThe test compounds were administered in varying intraperitoneal doses to groups consisting of 5 mice. Ten minutes after administration of a given dose of a compound, a mouse was transferred to a covered 300 ml glass beaker that contained a wad of cotton saturated with about 20 ml of chloroform. The animal was observed closely and removed from the beaker immediately after respiratory arrest. The heart was quickly exposed by making an incision through the abdomen, diaphragm, thorax and pericardium for visual inspection of ventricular rate and rhythm. Ventricular contractions were counted for 30 seconds. According to the procedure reported by Lawson, animals with ventricular rate not exceeding 100 contractions during the 30 second observation period were considered protected."}, "[2]": {"system": "mice", "method": "(§1) LD50 data were obtained by standard procedures known to the art.\n(§2) In order to obtain an indication of the specificity and/or safety margin of the antiarrhythmic effect, the acute toxicity of the compounds was investigated. This was carried out by administering log-spaced intraperitoneal doses of the test compounds to groups of five mice."}, "[3]": {"assay": "in vivo", "conditions": "mouse, ip", "method": "as §1, §2"}, "[4]": {"system": "ventricular arrhythmias induced by digitalis", "conditions": "prior-art background; cited from earlier work"}, "[5]": {"conditions": "cited from earlier work"}},
  "note": "Where two headings read alike, the source gives them in different places.",
  "data": [
    {"compound": "5-[(indol-3-yl)methyl]hydantoin [V (R=II)]", "values": [
      {"measurement": "ED50", "setting": "[1]", "value": 72, "unit": "mg/kg"},
      {"measurement": "Therapeutic Index", "setting": "[2]; LD50/ED50, mouse, i.p.", "value": 4.3},
      {"measurement": "LD50", "setting": "[2]; mouse, in vivo, ip, 2880 min", "value": 307, "unit": "mg/kg"}
    ]},
    {"compound": "O=C1NC(c2c[nH]c3ccccc23)C(=O)N1CCCN1CCCCC1", "note": "(stereo not shown) [Example 6, 5-(Indol-3-yl)-3-[3-(piperid-1-yl)propyl]hydantoin]", "values": [
      {"measurement": "LD50 at 48 h", "setting": "[3]", "value": 66, "unit": "mg/kg"},
      {"measurement": "selectivity ratio", "setting": "[3]", "value": 3.1}
    ]},
    {"compound": "O=C1NC(Cc2c[nH]c3ccccc23)C(=O)N1CCCN1CCC(c2ccccc2)CC1", "note": "(stereo not shown) [Example 9, 5-(Indol-3-ylmethyl)-3-[3-(4-phenyl-1-piperidyl)propyl]hydantoin]", "values": [
      {"measurement": "ED50", "setting": "[1]", "value": 7.5, "unit": "mg/kg"},
      {"measurement": "LD50 at 48 h", "setting": "[3]", "value": 19, "unit": "mg/kg"},
      {"measurement": "selectivity ratio", "setting": "[3]", "value": 2.5}
    ]},
    {"compound": "C[N+]1(CCCN2C(=O)NC(Cc3c[nH]c4ccccc34)C2=O)CCC(c2ccccc2)CC1", "note": "(stereo not shown) [Example 10, 5-(Indol-3-ylmethyl)-3-[3-(4-phenyl-1-piperidyl)propyl]hydantoin methiodide]", "values": [
      {"measurement": "ED50", "setting": "[1]", "value": 19.6, "unit": "mg/kg"},
      {"measurement": "LD50 at 48 h", "setting": "[3]", "value": 69, "unit": "mg/kg"},
      {"measurement": "selectivity ratio", "setting": "[3]", "value": 3.5}
    ]},
    {"compound": "O=C1NC(Cc2c[nH]c3ccc(Cl)cc23)C(=O)N1CCCN1CCC(c2ccccc2)CC1", "note": "(stereo not shown) [Example 11, 5-(5-Chloroindol-3-ylmethyl)-3-[3-(4-phenyl-1-piperidyl)propyl]hydantoin]", "values": [
      {"measurement": "ED50", "setting": "[1]", "value": 37, "unit": "mg/kg"},
      {"measurement": "LD50 at 48 h", "setting": "[3]", "value": 69, "unit": "mg/kg"},
      {"measurement": "selectivity ratio", "setting": "[3]", "value": 1.9}
    ]},
    {"compound": "O=C1NC(c2ccccc2)(c2c[nH]c3ccccc23)C(=O)N1CCCN1CCC(c2ccccc2)CC1", "note": "(stereo not shown) [Example 12, 5-(Indol-3-yl)-5-phenyl-3-[3-(4-phenyl-1-piperidyl)propyl]hydantoin]", "values": [
      {"measurement": "ED50", "setting": "[1]", "value": 80, "unit": "mg/kg"},
      {"measurement": "LD50 at 48 h", "setting": "[3]", "value": 63, "unit": "mg/kg"},
      {"measurement": "selectivity ratio", "setting": "[3]", "value": 0.9}
    ]},
    {"compound": "O=C1NC(Cc2c[nH]c3ccccc23)C(=O)N1CCCN1CCC(O)(c2ccccc2)CC1", "note": "(stereo not shown) [Example 13, 3-[3-(4-Hydroxy-4-phenylpiperid-1-yl)propyl]-5-[(indol-3-yl)methyl]hydantoi]", "values": [
      {"measurement": "ED50", "setting": "[1]", "value": 23, "unit": "mg/kg"},
      {"measurement": "LD50 at 48 h", "setting": "[3]", "value": 57, "unit": "mg/kg"},
      {"measurement": "selectivity ratio", "setting": "[3]", "value": 2.5}
    ]},
    {"compound": "CCN(CC)CCCN1C(=O)NC(c2ccccc2)(c2c[nH]c3ccccc23)C1=O", "note": "(stereo not shown) [Example 14, 3-(3-Diethylaminopropyl)-5-(indol-3-yl)-5-phenylhydantoin]", "values": [
      {"measurement": "ED50", "setting": "[1]", "value": 27, "unit": "mg/kg"},
      {"measurement": "LD50 at 48 h", "setting": "[3]", "value": 48, "unit": "mg/kg"},
      {"measurement": "selectivity ratio", "setting": "[3]", "value": 1.8}
    ]},
    {"compound": "CCN(CC)CCCN1C(=O)NC(c2c[nH]c3ccccc23)C1=O", "note": "(stereo not shown) [Example 15, 3-(3-Diethylaminopropyl)-5-(indol-3-yl)hydantoin]", "values": [
      {"measurement": "ED50", "setting": "[1]", "value": 44, "unit": "mg/kg"},
      {"measurement": "LD50 at 48 h", "setting": "[3]", "value": 79, "unit": "mg/kg"},
      {"measurement": "selectivity ratio", "setting": "[3]", "value": 1.8}
    ]},
    {"compound": "CCN(CC)CCCN1C(=O)NC(Cc2c[nH]c3ccc(Cl)cc23)C1=O", "note": "(stereo not shown) [Example 17, 5-(5-Chloroindol-3-ylmethyl)-3-(diethylaminopropyl)hydantoin]", "values": [
      {"measurement": "ED50", "setting": "[1]", "value": 44, "unit": "mg/kg"},
      {"measurement": "LD50 at 48 h", "setting": "[3]", "value": 74, "unit": "mg/kg"},
      {"measurement": "selectivity ratio", "setting": "[3]", "value": 1.7}
    ]},
    {"compound": "CCN(CC)CCCN1C(=O)NC(Cc2c[nH]c3ccc(OC)cc23)C1=O", "note": "(stereo not shown) [Example 18, 3-(3-Diethylaminopropyl)-5-(5-methoxyindol-3-ylmethyl)hydantoin]", "values": [
      {"measurement": "ED50", "setting": "[1]", "value": 13, "unit": "mg/kg"},
      {"measurement": "LD50 at 48 h", "setting": "[3]", "value": 61, "unit": "mg/kg"},
      {"measurement": "selectivity ratio", "setting": "[3]", "value": 4.7}
    ]},
    {"compound": "O=C1NC(Cc2c[nH]c3ccccc23)C(=O)N1CCCN1CCCCC1", "note": "(stereo not shown) [Example 20, 5-(Indol-3-ylmethyl)-3-(3-piperidylpropyl)hydantoin]", "values": [
      {"measurement": "ED50", "setting": "[1]", "value": 23.8, "unit": "mg/kg"},
      {"measurement": "LD50 at 48 h", "setting": "[3]", "value": 190, "unit": "mg/kg"},
      {"measurement": "selectivity ratio", "setting": "[3]", "value": 8}
    ]},
    {"compound": "COc1ccc2[nH]cc(CC3NC(=O)N(CCCN4CCC(c5ccccc5)CC4)C3=O)c2c1", "note": "(stereo not shown) [Example 21, 5-(5-Methoxyindol-3-ylmethyl)-3-[3-(4-phenylpiperid-1-yl)propyl]hydantoin]", "values": [
      {"measurement": "ED50", "setting": "[1]", "value": 9, "unit": "mg/kg"},
      {"measurement": "LD50 at 48 h", "setting": "[3]", "value": 24, "unit": "mg/kg"},
      {"measurement": "selectivity ratio", "setting": "[3]", "value": 2.7}
    ]},
    {"compound": "O=C1NC(=O)C(c2ccccc2)(c2ccccc2)N1", "note": "[III, 5,5-diphenyl-2,4-imidazolidinedione]", "values": [
      {"measurement": "ED50", "setting": "[1]", "value": 123, "unit": "mg/kg"},
      {"measurement": "antiarrhythmic effects", "setting": "[4]", "value": "specifically antagonizes ventricular arrhythmias induced by digitalis, depresses ventricular automaticity, enhances atrio-ventricular nodal conduction, and reduces the effective refractory period"},
      {"measurement": "side effects / toxicity", "setting": "[5]; in vivo", "value": "dizziness, nausea, emesis, nystigmus, and ataxia"},
      {"measurement": "side effects / toxicity", "setting": "[5]; prior-art background, listed as DPH", "value": "toxic and may produce atrio-ventricular blockage, bradycardia, or even cardiac arrest"}
    ]},
    {"compound": "C=C[C@H]1C[N@@]2CC[C@H]1C[C@@H]2[C@@H](O)c1ccnc2ccc(OC)cc12", "note": "[Quinidine]", "values": [
      {"measurement": "side effects / toxicity", "setting": "[5]; prior-art background", "value": "relatively toxic"}
    ]}
  ]
}
